Experimental data taken from US9850247B2 (Almac Discovery Limited, priority 2013, dated 2017).

Columns and labels:
Wee-1 kinase = molecular target: T1, Wee-1 kinase (Homo sapiens, UniProt P30291); assay: Measurement of Wee-1 kinase activity (ADP-Glo luminescent kit); format: biochemical
T1 construct: purchased Invitrogen PV3817
Procedure, shortened: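 ADP-Glo luminescence reads ADP made over 1 h at RT, after an aliquot of 30 μM ATP and 2.0 μg/mL poly(Lys,Tyr 4:1) substrate. Before that, the kinase sat 30 min with inhibitor in Tris-HCl/MgCl2 buffer with BSA and DTT. IC50 came from regression of percent inhibition.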

[1] = system: phospho-cdc2 (Tyr15) in HT-29 cells; assay: Effect on Cdc2 phosphorylation at Tyr15, Cell-Based ELISA Base Kit (Method 3); conditions: eight hours incubation, normalized to total cdc2, read-out: HT29 pCDC2 method 3
Protocol: Method 3: Determining the Effect of Compounds on the Cdc2 phosphorylation at Tyr15, using a Cell-Based ELISA Base Kit (R&D Systems, KCB001)
The colorectal cancer cell line, HT-29 was purchased from the ATCC and maintained in McCoy's 5 A medium (Gibco®, Life technologies) supplemented with 10% Foetal Calf Serum (FCS).
The cells were trypsinised and counted, 100 μL of 8000 cells was seeded into each well of a clear-bottom black 96-well microplate and incubated overnight to allow adherence to the surface, at 37° C. and 5% CO2 in a cell culture incubator.
Test compounds were formulated in DMSO and diluted in cell culture medium supplemented with FCS. Grow medium was removed from cells and medium containing compounds dilutions was added to each well. The plate was returned to the incubator for an additional eight hours of incubation at 37° C. and 5% CO2.
Post incubation cells were fixed by replacing the compounds supplemented medium with 100 μL of 4% formaldehyde in 1× phosphate buffered saline (PBS), for 20 minutes at room temperature. Formaldehyde solution was removed and cells were washed three times with PBS. The Cell-Based ELISA assay (R&D Systems) was carried out immediately after cell fixation or the plate was sealed and fixed cells were stored in PBS at 4° C. until required (no more than two weeks).
To continue the assay, PBS was removed and cells were washed 3 times for 5 minutes with 200 μL of 1× wash buffer. Each wash step was carried out with gentle shaking. Following washes, 100 μL of 0.6% H2O2 in 1× wash buffer (quenching buffer) was added, plate was sealed and incubated for 20 minutes at room temperature. Post incubation cells were washes 3 times for 5 minutes with 200 μL of 1× wash buffer, with gentle shaking. 100 μL of blocking buffer was added to each well, the plate was re-sealed and incubated at room temperature for 1 h.
After blocking, cells were washed as described above. A primary antibody mixture was prepared by mixing the two primary antibodies, a rabbit monoclonal antibody for phospho-cdc2 (Tyr15) (Cell Signaling, #4539) and mouse monoclonal antibody for total cdc2 p34 (Santa Cruz Biotechnology, sc-54), diluted 1:25 and 1:50 in blocking buffer, respectively. 60 μL of primary antibody mixture was added to each well, the plate was sealed and incubated overnight at 4° C.
The primary antibodies were removed and cells were washed as previously described. 100 μL of secondary antibody mixture, containing horseradish-peroxidase (HRP)-conjugated goat anti-rabbit IgG and alkaline phosphatase (AP)-conjugated goat anti-mouse IgG, diluted 1:100 in blocking buffer, was added to each test well. The plate was re-sealed and incubated for 2 hours at room temperature.
The secondary antibodies were removed and cells washed 2 times with wash buffer, followed by 2 washes with PBS. Each wash step was carried out for 5 minutes with gentle shaking. PBS was removed and 75 μL of fluorogenic substrate for HRP (substrate F1) added to each well. The plate was sealed and incubated for 1 h at room temperature, in the dark. 75 μL of fluorogenic substrate for AP (substrate F2) was added directly to each well, plate re-sealed and incubated for additional 40 minutes at room temperature, protected from direct light.
Following incubation fluorescence from each well was read at 600 nm (signal from substrate 1, phosphorylated protein) and then at 450 nm (signal from substrate 2, total protein).
The percentage of phospho-cdc2 was calculated compared to DMSO control, normalized to the total cdc2 and plotted versus the concentration of inhibitor, using GraphPad Prism. Data was fitted using a non-linear regression analysis and EC50 values generated.

[2] = CLint estimates using human liver microsomes (Method 4); format: in vitro ADME; conditions: pH 7.4, 1 μM compound, read-out: Mics - CLint (HLM CLint)
Protocol: Method 4: Determination of CLint Estimates Using Human liver microsomes Test compounds (final concentration=1 μM; final DMSO concentration=0.1%) were incubated in 0.1 M phosphate buffer pH 7.4 with human liver microsomes (0.5 mg of protein/mL) at 37° C. Reactions were started by addition of NADPH in 0.1 M phosphate buffer pH 7.4 (final concentration 1 mM). 40 μL aliquots were removed at 2, 5, 10, 15, 20, 30, 40 and 50 min. Reactions were quenched in 80 μL of ice-cold methanol. Samples were subsequently frozen overnight then centrifuged at 3500 rpm for 20 min at 4° C. The supernatants were removed and transferred into analytical plates and analysed by LC/MS/MS. LC/MS/MS Method: All samples were analysed on a Waters Acquity I-Class coupled to a Waters Xevo TQD mass spectrometer. A Waters BEH C18 2.1×50 mm 1.7 μm column was used and mobile phases were water and methanol containing 0.1% formic acid as modifier. Analysis was by multiple reaction monitoring and conditions were optimised for each test compound. Data Analyses: From a plot of 1n peak area against time, the gradient of the line is determined. Subsequently, half-life and intrinsic clearance are calculated using the following equations. [formula] [formula] [formula] where V=Incubation volume (μL)/number of cells Method 5: Determination of Kinetic Solubility (in PBS Buffer)

T1 sequence (P30291 whole entry): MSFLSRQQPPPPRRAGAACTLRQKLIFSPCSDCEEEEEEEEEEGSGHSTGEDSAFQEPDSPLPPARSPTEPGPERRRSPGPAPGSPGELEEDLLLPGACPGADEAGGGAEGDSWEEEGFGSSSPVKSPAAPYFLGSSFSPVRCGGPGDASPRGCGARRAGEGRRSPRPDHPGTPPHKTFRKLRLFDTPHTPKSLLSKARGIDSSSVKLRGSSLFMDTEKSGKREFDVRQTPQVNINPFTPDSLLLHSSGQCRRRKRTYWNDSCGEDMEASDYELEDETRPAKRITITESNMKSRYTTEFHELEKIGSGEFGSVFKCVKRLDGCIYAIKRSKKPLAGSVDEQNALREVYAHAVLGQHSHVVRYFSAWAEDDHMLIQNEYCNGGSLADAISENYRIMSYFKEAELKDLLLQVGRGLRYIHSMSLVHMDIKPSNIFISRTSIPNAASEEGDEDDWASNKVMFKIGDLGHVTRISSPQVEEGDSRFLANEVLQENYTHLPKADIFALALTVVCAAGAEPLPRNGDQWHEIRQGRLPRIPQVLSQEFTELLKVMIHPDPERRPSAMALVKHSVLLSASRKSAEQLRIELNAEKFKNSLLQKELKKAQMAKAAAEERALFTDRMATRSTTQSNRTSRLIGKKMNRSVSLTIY

IC50 (Wee-1 kinase) [nM]	microsomal CLint at 1 μM [2] [µL/min/mg]	SMILES	EC50 [1] [nM]
≤ 10	–	COC[C@H]1CN(c2ccc(Nc3ncc4c(n3)N(C)CN(c3c(Cl)cccc3Cl)C4=O)cc2C(O)C(F)F)CCN1 (single isomer, unassigned) [Example 163]	100 to 1000
≤ 10	–	COC[C@H]1CN(c2ccc(Nc3ncc4c(n3)N(C)CN(c3c(Cl)cccc3Cl)C4=O)cc2C(O)C(F)(F)F)CCN1 (single isomer, unassigned) [Example 184]	≥ 1000
10 to 100	15 to 50	CCN1CCN(c2ccc(Nc3ncc4c(n3)N(C)CN(c3c(Cl)cccc3Cl)C4=O)cc2)CC1 [Example 122, 3-(2,6-dichlorophenyl)-7-((4-(4-ethylpiperazin-1-yl)phenyl)amino)-1-methyl-2,3-dihydropyrimido[4,5-d]pyrimidin-4(1H)-one]	–
≤ 10	≤ 15	COC[C@H]1CNCCN1c1ccc(Nc2ncc3c(n2)N(C)CN(c2c(Cl)cccc2Cl)C3=O)cc1 [Example 129, (R)-3-(2,6-dichlorophenyl)-7-((4-(2-(methoxymethyl)piperazin-1-yl)phenyl)amino)-1-methyl-2,3-dihydropyrimido[4,5-d]pyrimidin-4(1H)-one]	–
10 to 100	15 to 50	COC[C@@H]1CNCCN1c1ccc(Nc2ncc3c(n2)N(C)CN(c2c(Cl)cccc2Cl)C3=O)cc1 [Example 130, (S)-3-(2,6-dichlorophenyl)-7-((4-(2-(methoxymethyl)piperazin-1-yl)phenyl)amino)-1-methyl-2,3-dihydropyrimido[4,5-d]pyrimidin-4(1H)-one]	–
≥ 100	≥ 50	CN1CN(c2c(Cl)cccc2Cl)C(=O)c2cnc(Nc3ccc(N4CCCCC4)c(CO)c3)nc21 [Example 131, 3-(2,6-dichlorophenyl)-7-((3-(hydroxymethyl)-4-(piperidin-1-yl)phenyl)amino)-1-methyl-2,3-dihydropyrimido[4,5-d]pyrimidin-4(1H)-one]	–
10 to 100	≤ 15	C[C@@H]1CN(c2ccc(Nc3ncc4c(n3)N(C)CN(c3c(Cl)cccc3Cl)C4=O)cc2OC(F)F)CCN1 [Example 132, (R)-3-(2,6-dichlorophenyl)-7-((3-(difluoromethoxy)-4-(3-methylpiperazin-1-yl)phenyl)amino)-1-methyl-2,3-dihydropyrimido[4,5-d]pyrimidin-4(1H)-one]	–
10 to 100	15 to 50	CN1CN(c2c(Cl)cccc2Cl)C(=O)c2cnc(Nc3ccc(N4CCN5CCOC[C@@H]5C4)c(CO)c3)nc21 [Example 133, (S)-3-(2,6-dichlorophenyl)-7-((4-(hexahydropyrazino[2,1-c][1,4]oxazin-8(1H)-yl)-3-(hydroxymethyl)phenyl)amino)-1-methyl-2,3-dihydropyrimido[4,5-d]pyrimidin-4(1H)-one]	–
10 to 100	≥ 50	CNCc1cc(Nc2ncc3c(n2)N(C)CN(c2c(Cl)cccc2Cl)C3=O)ccc1N1CCCCC1 [Example 136, 3-(2,6-dichlorophenyl)-1-methyl-7-((3-((methylamino)methyl)-4-(piperidin-1-yl)phenyl)amino)-2,3-dihydropyrimido[4,5-d]pyrimidin-4(1H)-one]	–
≤ 10	≤ 15	CC(=O)N1CCN(c2ccc(Nc3ncc4c(n3)N(C)CN(c3c(Cl)cccc3Cl)C4=O)cc2CN2CCCC2)CC1 [Example 138, 7-((4-(4-acetylpiperazin-1-yl)-3-(pyrrolidin-1-ylmethyl)phenyl)amino)-3-(2,6-dichlorophenyl)-1-methyl-2,3-dihydropyrimido[4,5-d]pyrimidin-4(1H)-one]	–
10 to 100	15 to 50	C[C@@H]1CN(c2ccc(Nc3ncc4c(n3)N(C)CN(c3c(Cl)cccc3Cl)C4=O)cc2C(F)F)CCN1 [Example 139, (R)-3-(2,6-dichlorophenyl)-7-((3-(difluoromethyl)-4-(3-methylpiperazin-1-yl)phenyl)amino)-1-methyl-2,3-dihydropyrimido[4,5-d]pyrimidin-4(1H)-one]	–
≥ 100	15 to 50	C[C@@H]1CN(c2ccc(Nc3ncc4c(n3)N(C)CN(c3c(Cl)cccc3Cl)C4=O)c(F)c2)CCN1 [Example 142, (R)-3-(2,6-dichlorophenyl)-7-((2-fluoro-4-(3-methylpiperazin-1-yl)phenyl)amino)-1-methyl-2,3-dihydropyrimido[4,5-d]pyrimidin-4(1H)-one]	–
10 to 100	≤ 15	CC(=O)NCc1cc(Nc2ncc3c(n2)N(C)CN(c2c(Cl)cccc2Cl)C3=O)ccc1N1CCNCC1 [Example 145, N-(5-((6-(2,6-dichlorophenyl)-8-methyl-5-oxo-5,6,7,8-tetrahydropyrimido[4,5-d]pyrimidin-2-yl)amino)-2-(piperazin-1-yl)benzyl)acetamide]	–
≥ 100	≤ 15	CNCc1cc(Nc2ncc3c(n2)N(C)CN(c2c(Cl)cccc2Cl)C3=O)ccc1F [Example 152, 3-(2,6-dichlorophenyl)-7-((4-fluoro-3-((methylamino)methyl)phenyl)amino)-1-methyl-2,3-dihydropyrimido[4,5-d]pyrimidin-4(1H)-one]	–
10 to 100	≤ 15	CNCc1cc(Nc2ncc3c(n2)N(C)CN(c2c(Cl)cccc2Cl)C3=O)ccc1-c1ccncc1 [Example 155, 3-(2,6-dichlorophenyl)-1-methyl-7-((3-((methylamino)methyl)-4-(pyridin-4-yl)phenyl)amino)-2,3-dihydropyrimido[4,5-d]pyrimidin-4(1H)-one]	–
10 to 100	15 to 50	CNCc1cc(Nc2ncc3c(n2)N(C)CN(c2c(Cl)cccc2Cl)C3=O)ccc1-c1cccnc1 [Example 156, 3-(2,6-dichlorophenyl)-1-methyl-7-((3-((methylamino)methyl)-4-(pyridin-3-yl)phenyl)amino)-2,3-dihydropyrimido[4,5-d]pyrimidin-4(1H)-one]	–
10 to 100	≤ 15	CNCc1cc(Nc2ncc3c(n2)N(C)CN(c2c(Cl)cccc2Cl)C3=O)ccc1Br [Example 157, 7-((4-bromo-3-((methylamino)methyl)phenyl)amino)-3-(2,6-dichlorophenyl)-1-methyl-2,3-dihydropyrimido[4,5-d]pyrimidin-4(1H)-one]	–
10 to 100	≤ 15	CNCc1cc(Nc2ncc3c(n2)N(C)CN(c2c(Cl)cccc2Cl)C3=O)ccc1OC [Example 159, 3-(2,6-dichlorophenyl)-7-((4-methoxy-3-((methylamino)methyl)phenyl)amino)-1-methyl-2,3-dihydropyrimido[4,5-d]pyrimidin-4(1H)-one]	–
